Measured values as given in ChEMBL document CHEMBL6103628, “Structural Optimization of Covalent Inhibitors for Deubiquitinase ChlaDUB1 of Chlamydia trachomatis as Antibiotic Agents” (J Med Chem, 2025).
Converted amounts (≈) assume the structure as drawn.

Key:
[1] = target: T1, Deubiquitinase and deneddylase Dub1 (Chlamydia trachomatis serovar L2 (strain ATCC VR-902B / DSM 19102 /434/Bu)) (UniProt B0B9A0); experiment: Inhibition of recombinant Chlamydia trachomatis DUB1 (130 to 401 residues) using Ub-Rh110Gly as fluorogenic substrate at 100 to 500 uM incubated for 20 to 240 mins by enzymatic analysis relative to control; conditions: dose 100-500 µM, time 20-240 min
T1 sequence (whole entry): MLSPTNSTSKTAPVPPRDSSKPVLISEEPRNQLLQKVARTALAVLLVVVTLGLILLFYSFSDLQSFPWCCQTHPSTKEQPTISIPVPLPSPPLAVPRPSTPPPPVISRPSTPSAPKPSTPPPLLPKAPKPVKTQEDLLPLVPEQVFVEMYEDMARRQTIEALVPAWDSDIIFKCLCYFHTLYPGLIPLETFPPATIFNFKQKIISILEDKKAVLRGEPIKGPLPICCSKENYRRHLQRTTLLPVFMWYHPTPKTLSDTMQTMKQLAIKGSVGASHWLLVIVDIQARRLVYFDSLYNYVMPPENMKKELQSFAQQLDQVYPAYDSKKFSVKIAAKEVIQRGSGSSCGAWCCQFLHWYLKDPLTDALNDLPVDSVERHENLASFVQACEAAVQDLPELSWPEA

[2] = tested on: Chlamydia trachomatis; experiment: Anti-chlamydial activity against Chlamydia trachomatis serovar L2 infected in human HEp-2 cells assessed as inhibition of chlamydial inclusion incubated for 16 hrs by Alexa488/DAPI staining based immunofluorescence assay; assay type: functional, organism-based; conditions: serovar L2, HEp-2, 16 h
[3] = target: Ubiquitin carboxyl-terminal hydrolase isozyme L1 (Homo sapiens) (UniProt P09936); experiment: Inhibition of human UCHL1 at 35 uM relative to control
Chain of Ubiquitin carboxyl-terminal hydrolase isozyme L1 (Homo sapiens) (P09936 whole entry, looked up): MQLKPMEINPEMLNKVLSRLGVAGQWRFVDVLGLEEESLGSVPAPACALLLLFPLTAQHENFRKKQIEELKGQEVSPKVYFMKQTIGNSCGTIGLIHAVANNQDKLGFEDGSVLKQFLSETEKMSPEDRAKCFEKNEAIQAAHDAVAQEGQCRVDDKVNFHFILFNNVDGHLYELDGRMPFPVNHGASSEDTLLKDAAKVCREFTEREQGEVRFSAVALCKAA

[4] = tested on: HeLa; experiment: Cytotoxicity against human HeLa cells assessed as cell viability at 4 to 256 ug/mL measured after 20 hrs by XTT assay; assay type: toxicity, cell-based; conditions: dose 4-256 µg/ml
[5] = target: T2, Deubiquitinase and deneddylase Dub2 (Chlamydia trachomatis) (UniProt O84875); experiment: Inhibition of Chlamydia trachomatis DUB2 incubated for 60 mins relative to control
T2 sequence (whole entry): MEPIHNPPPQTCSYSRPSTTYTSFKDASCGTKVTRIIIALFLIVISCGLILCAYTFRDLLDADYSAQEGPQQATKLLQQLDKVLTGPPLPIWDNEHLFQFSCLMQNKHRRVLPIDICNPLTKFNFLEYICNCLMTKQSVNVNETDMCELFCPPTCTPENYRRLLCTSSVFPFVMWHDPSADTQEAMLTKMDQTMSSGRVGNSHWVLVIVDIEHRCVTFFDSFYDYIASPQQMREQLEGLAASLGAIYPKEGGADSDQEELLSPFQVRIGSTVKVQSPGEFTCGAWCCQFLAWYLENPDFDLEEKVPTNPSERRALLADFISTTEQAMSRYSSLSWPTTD

[6] = tested on: HEp-2; experiment: Cytotoxicity against human HEp-2 cells assessed as reduction in cell viability at 4 to 256 ug/mL measured after 20 hrs by XTT assay; assay type: toxicity, cell-based; conditions: hep-2, 20 h, dose 4-256 µg/ml
[7] = target: T3, Deubiquitinase and deneddylase Dub1 (Chlamydia trachomatis serovar L2 (strain ATCC VR-902B / DSM 19102 /434/Bu), UniProt B0B9A0); experiment: Inhibition of recombinant Chlamydia trachomatis DUB1 (130 to 401 residues) using Ub-Rh110Gly as fluorogenic substrate incubated for 60 mins by enzymatic analysis; conditions: read-out: IC50
T3 sequence (B0B9A0 whole entry): T1 sequence (whole entry)

[8] = Cytotoxicity against HDFa cells assessed as reduction in cell viability at 16 ug/mL measured after 20 hrs by XTT assay; assay type: toxicity, cell-based; conditions: human, dose 16 µg/ml
[9] = target: T4, Ubiquitin carboxyl-terminal hydrolase 28 (Homo sapiens) (UniProt Q96RU2); experiment: Inhibition of human USP28 at 35 uM relative to control
T4 sequence (whole entry): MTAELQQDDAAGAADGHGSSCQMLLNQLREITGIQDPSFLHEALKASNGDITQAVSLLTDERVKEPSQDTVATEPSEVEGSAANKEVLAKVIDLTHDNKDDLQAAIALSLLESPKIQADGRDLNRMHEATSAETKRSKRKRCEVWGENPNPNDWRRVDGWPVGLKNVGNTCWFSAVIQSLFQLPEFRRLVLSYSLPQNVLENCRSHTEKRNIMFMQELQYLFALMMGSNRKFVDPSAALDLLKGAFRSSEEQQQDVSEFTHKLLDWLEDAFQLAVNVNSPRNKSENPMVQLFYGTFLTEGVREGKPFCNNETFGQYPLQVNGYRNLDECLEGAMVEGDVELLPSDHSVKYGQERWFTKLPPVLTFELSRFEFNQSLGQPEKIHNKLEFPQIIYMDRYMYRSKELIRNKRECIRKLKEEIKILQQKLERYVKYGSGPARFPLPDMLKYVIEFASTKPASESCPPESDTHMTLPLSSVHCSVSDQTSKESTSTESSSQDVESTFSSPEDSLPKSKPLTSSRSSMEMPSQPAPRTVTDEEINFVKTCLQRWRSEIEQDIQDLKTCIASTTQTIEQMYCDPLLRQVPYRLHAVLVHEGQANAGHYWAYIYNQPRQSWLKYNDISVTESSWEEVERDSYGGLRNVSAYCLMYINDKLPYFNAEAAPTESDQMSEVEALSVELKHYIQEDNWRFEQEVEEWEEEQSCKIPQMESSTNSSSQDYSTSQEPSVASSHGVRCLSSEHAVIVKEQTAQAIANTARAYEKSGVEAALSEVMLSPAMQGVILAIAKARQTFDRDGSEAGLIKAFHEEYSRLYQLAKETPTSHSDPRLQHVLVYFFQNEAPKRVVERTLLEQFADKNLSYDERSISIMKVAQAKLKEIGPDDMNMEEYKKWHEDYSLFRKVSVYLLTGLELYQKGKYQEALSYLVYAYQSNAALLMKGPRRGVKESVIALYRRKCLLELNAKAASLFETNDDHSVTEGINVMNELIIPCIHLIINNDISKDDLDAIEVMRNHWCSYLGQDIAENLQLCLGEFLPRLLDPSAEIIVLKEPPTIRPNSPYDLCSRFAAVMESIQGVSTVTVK

Structure (SMILES): N#Cc1nccc(C(=O)NCc2nn(C(=O)Cc3ccccc3)c3ccccc23)n1
- inhibition [1]: Active; Partial Inhibition Observed
- IC50 [2]: 25.6 µg/mL (≈ 64.6 µM)
- inhibition [3]: < 25%
- Activity [4]: Non-toxic
- inhibition [5]: 100%
- Activity [6]: Non-toxic
- IC50 [7]: 970 nM
- Activity [8]: Toxic
- inhibition [9]: < 25%
